Test results reported in publication PMC11995724, “Antibiotic target discovery by integrated phenotypic and activity-based profiling of electrophilic fragments” (Cell chemical biology, 2025).
Where a name gives a salt, the structure may show the parent alone.

assay: in vitro; conditions: human, hek293t cells

Compound	viability at 48 h, 25 µM
COc1c(C)cnc(CN2CCC(N(C)C(=O)C(C)Cl)CC2)c1C (stereo not drawn) [6-A04, 2-chloro-N-{1-[(4-methoxy-3,5-dimethylpyridin-2-yl)methyl]piperidin-4-yl}-N-methylpropanamide]	124%
O=C(CCl)Nc1cc(-n2cnnn2)ccc1Cl [6-A05, 2-chloro-N-[2-chloro-5-(1H-1,2,3,4-tetrazol-1-yl)phenyl]acetamide]	0.726%
Cc1csc(Cl)c1NC(=O)CCl [6-A06, 2-chloro-N-(2-chloro-4-methylthiophen-3-yl)acetamide]	0.632%
CC(Cl)C(=O)NC(C)c1ccc2c(c1)CCCC2 (stereo not drawn) [6-A07, 2-chloro-N-[1-(5,6,7,8-tetrahydronaphthalen-2-yl)ethyl]propanamide]	93.1%
O=C(CCl)NCCOc1ccc(F)cc1 [6-A08, 2-chloro-N-[2-(4-fluorophenoxy)ethyl]acetamide]	1.34%
CC(Cl)C(=O)Nc1cc(F)ccc1F (stereo not drawn) [6-A09, 2-chloro-N-(2,5-difluorophenyl)propanamide]	96%
Cc1cc(C)c(-c2cc(NC(=O)CCl)n(-c3ccccc3)n2)cc1C [6-A10, 2-chloro-N-[1-phenyl-3-(2,4,5-trimethylphenyl)-1H-pyrazol-5-yl]acetamide]	0.264%
CC(Cl)C(=O)Nc1ccccc1C#N (stereo not drawn) [6-A11, 2-chloro-N-(2-cyanophenyl)propanamide]	97.2%
Cc1ccc(C(=O)c2c(NC(=O)CCl)sc3c2CCCC3)cc1 [6-A12, 2-chloro-N-[3-(4-methylbenzoyl)-4,5,6,7-tetrahydro-1-benzothiophen-2-yl]acetamide]	14%
O=C(CCl)Nc1ccc2c(c1)oc1ccccc12 [6-A13, 2-chloro-N-{8-oxatricyclo[7.4.0.0,2,7]trideca-1(9),2(7),3,5,10,12-hexaen-5-yl}acetamide]	-0.0548%
O=C(CCl)NCCOc1ccc2ccccc2c1 [6-A14, 2-chloro-N-[2-(naphthalen-2-yloxy)ethyl]acetamide]	0.0621%
CC(Cl)C(=O)Nc1cc(Cl)ccc1Cl (stereo not drawn) [6-A15, 2-chloro-N-(2,5-dichlorophenyl)propanamide]	86.9%
COc1ccc(Cl)cc1CNC(=O)CCl [6-A16, 2-chloro-N-[(5-chloro-2-methoxyphenyl)methyl]acetamide]	0.564%
N#CCCN(C(=O)CCl)c1cccc(Cl)c1 [6-A17, 2-chloro-N-(3-chlorophenyl)-N-(2-cyanoethyl)acetamide]	-0.154%
CC(NC(=O)CCl)c1ccc2ncsc2c1 (stereo not drawn) [6-A18, N-[1-(1,3-benzothiazol-6-yl)ethyl]-2-chloroacetamide]	2.3%
CN(CC1CCCCC1)C(=O)C(C)(C)NC(=O)CCl [6-A19, 2-(2-chloroacetamido)-N-(cyclohexylmethyl)-N,2-dimethylpropanamide]	61.9%
CCC(C)n1nccc1NC(=O)C(C)Cl (stereo not drawn) [6-A20, N-[1-(butan-2-yl)-1H-pyrazol-5-yl]-2-chloropropanamide]	84.8%
CC(Cl)C(=O)Nc1sc2c(c1C(N)=O)CCC2 (stereo not drawn) [6-A21, 2-(2-chloropropanamido)-4H,5H,6H-cyclopenta[b]thiophene-3-carboxamide]	119%
O=C(CCl)NCc1ccccc1[N+](=O)[O-] [6-A22, 2-chloro-N-[(2-nitrophenyl)methyl]acetamide]	0.388%

Compound	viability at 48 h, 25 µM
O=C(CCl)Nc1ncc[nH]1 [6-B03, 2-chloro-N-(1H-imidazol-2-yl)acetamide hydrochloride]	37.4%
O=C(CCl)NCc1coc(Cl)n1 [6-B04, 2-chloro-N-[(2-chloro-1,3-oxazol-4-yl)methyl]acetamide]	106%
CC(Cl)C(=O)NC1COCc2ccccc21 (stereo not drawn) [6-B05, 2-chloro-N-(3,4-dihydro-1H-2-benzopyran-4-yl)propanamide]	106%
CC(Cl)C(=O)Nc1ccc(S(N)(=O)=O)cc1 (stereo not drawn) [6-B06, 2-chloro-N-(4-sulfamoylphenyl)propanamide]	101%
CC(Cl)C(=O)NCc1cc2sccc2s1 (stereo not drawn) [6-B07, 2-chloro-N-({thieno[3,2-b]thiophen-2-yl}methyl)propanamide]	109%
COc1ccc(NC(=O)C(C)Cl)c([N+](=O)[O-])c1 (stereo not drawn) [6-B08, 2-chloro-N-(4-methoxy-2-nitrophenyl)propanamide]	90.1%
Cn1ccc(-c2nc(CNC(=O)CCl)cs2)n1 [6-B09, 2-chloro-N-{[2-(1-methyl-1H-pyrazol-3-yl)-1,3-thiazol-4-yl]methyl}acetamide hydrochloride]	1.33%
CC(C)NS(=O)(=O)c1ccc(NC(=O)C(C)Cl)cc1 (stereo not drawn) [6-B10, 2-chloro-N-{4-[(propan-2-yl)sulfamoyl]phenyl}propanamide]	98.5%
CC(Cl)C(=O)N1CCN(C(=O)CN2C(=O)CCC2=O)CC1 (stereo not drawn) [6-B11, 1-{2-[4-(2-chloropropanoyl)piperazin-1-yl]-2-oxoethyl}pyrrolidine-2,5-dione]	106%
CC(Cl)C(=O)N1CCN(S(=O)(=O)c2ccccc2)CC1 (stereo not drawn) [6-B12, 1-[4-(benzenesulfonyl)piperazin-1-yl]-2-chloropropan-1-one]	100%
COCC(NC(=O)C(C)Cl)c1ccccn1 (stereo not drawn) [6-B13, 2-chloro-N-[2-methoxy-1-(pyridin-2-yl)ethyl]propanamide]	106%
CC(Cl)C(=O)NC1(c2noc(C(F)F)n2)CCC1 (stereo not drawn) [6-B15, 2-chloro-N-{1-[5-(difluoromethyl)-1,2,4-oxadiazol-3-yl]cyclobutyl}propanamide]	91.8%
CC(Cl)C(=O)NC(C)c1ccn(C)n1 (stereo not drawn) [6-B16, 2-chloro-N-[1-(1-methyl-1H-pyrazol-3-yl)ethyl]propanamide]	103%
COc1cccc([C@H]2C[C@H](N(C)C(=O)C(C)Cl)C2)c1 (stereo partly drawn) [6-B17, 2-chloro-N-methyl-N-[(1r,3r)-3-(3-methoxyphenyl)cyclobutyl]propanamide]	79.7%
CC(Cl)C(=O)N(C)C1CCN(C(=O)c2ccccc2)CC1 (stereo not drawn) [6-B18, N-(1-benzoylpiperidin-4-yl)-2-chloro-N-methylpropanamide]	95.9%
CC(Cl)C(=O)N1CCCc2c1ccc1c2ncn1C (stereo not drawn) [6-B19, 2-chloro-1-{3-methyl-3H,6H,7H,8H,9H-imidazo[4,5-f]quinolin-6-yl}propan-1-one]	90.9%
CC(Cl)C(=O)NCC1(n2ccnn2)CC1 (stereo not drawn) [6-B20, 2-chloro-N-{[1-(1H-1,2,3-triazol-1-yl)cyclopropyl]methyl}propanamide]	104%
CC(Cl)C(=O)N1CCc2oc(-c3ccccc3)cc2C1 (stereo not drawn) [6-B21, 2-chloro-1-{2-phenyl-4H,5H,6H,7H-furo[3,2-c]pyridin-5-yl}propan-1-one]	67.2%
CC(Cl)C(=O)N[C@H]1C[C@H](C)S(=O)(=O)c2sccc21 (stereo partly drawn) [6-B22, 2-chloro-N-[(2S,4S)-2-methyl-1,1-dioxo-2H,3H,4H-1lambda6-thieno[2,3-b]thiopyran-4-yl]propanamide]	92.4%

Compound	viability at 48 h, 25 µM
CN(CCOc1ccccc1F)C(=O)CCl [6-C03, 2-chloro-N-[2-(2-fluorophenoxy)ethyl]-N-methylacetamide]	1.83%
CC(C)(CNC(=O)CCl)CC1CCOCC1 [6-C04, 2-chloro-N-[2,2-dimethyl-3-(oxan-4-yl)propyl]acetamide]	130%
CC1(C)CN(C(=O)CCl)CCO1 [6-C05, 2-chloro-1-(2,2-dimethylmorpholin-4-yl)ethan-1-one]	2.63%
Cc1ccccc1CC(C)NC(=O)CCl (stereo not drawn) [6-C06, 2-chloro-N-[1-(2-methylphenyl)propan-2-yl]acetamide]	75.4%
Cc1nn(C)c(C)c1NC(=O)C(C)Cl (stereo not drawn) [6-C07, 2-chloro-N-(1,3,5-trimethyl-1H-pyrazol-4-yl)propanamide]	116%
O=C(CCl)NCC(c1ccccc1)c1c[nH]c2ccccc12 (stereo not drawn) [6-C08, 2-chloro-N-[2-(1H-indol-3-yl)-2-phenylethyl]acetamide]	0.717%
COc1ccccc1CN(C)C(=O)CCl [6-C09, 2-chloro-N-[(2-methoxyphenyl)methyl]-N-methylacetamide]	1.06%
CC1CCCCC1NC(=O)CCl (stereo not drawn) [6-C10, 2-chloro-N-(2-methylcyclohexyl)acetamide]	93.3%
N#CCSc1ccccc1NC(=O)CCl [6-C11, 2-chloro-N-{2-[(cyanomethyl)sulfanyl]phenyl}acetamide]	2.08%
CC(Cl)C(=O)N(C)CCOc1ccc(Cl)cc1 (stereo not drawn) [6-C12, 2-chloro-N-[2-(4-chlorophenoxy)ethyl]-N-methylpropanamide]	81.3%
O=C(CCl)NC(Cc1ccccc1)C(=O)O (stereo not drawn) [6-C13, 2-(2-chloroacetamido)-3-phenylpropanoic acid]	97.4%
O=C(CCl)NCc1ccccc1OC1CCCC1 [6-C14, 2-chloro-N-{[2-(cyclopentyloxy)phenyl]methyl}acetamide]	2.1%
COc1cc(Cl)c(C)cc1NC(=O)C(C)Cl (stereo not drawn) [6-C15, 2-chloro-N-(4-chloro-2-methoxy-5-methylphenyl)propanamide]	102%
CN(C)C(=O)c1ccc(CNC(=O)CCl)cc1 [6-C16, 4-[(2-chloroacetamido)methyl]-N,N-dimethylbenzamide]	67.8%
CC(Cl)C(=O)Nc1cccnc1Cl (stereo not drawn) [6-C17, 2-chloro-N-(2-chloropyridin-3-yl)propanamide]	106%
O=C(CCl)Nc1ccc(Oc2cccc(Cl)c2)cc1 [6-C18, 2-chloro-N-[4-(3-chlorophenoxy)phenyl]acetamide]	0.765%
O=C(CCl)Nc1nccc(Cl)n1 [6-C19, 2-chloro-N-(4-chloropyrimidin-2-yl)acetamide]	100%
CCN(CC)S(=O)(=O)c1ccc(Cl)c(NC(=O)C(C)Cl)c1 (stereo not drawn) [6-C20, 2-chloro-N-[2-chloro-5-(diethylsulfamoyl)phenyl]propanamide]	79.6%
O=C(CCl)NCC(F)(F)c1cccnc1 [6-C21, 2-chloro-N-[2,2-difluoro-2-(pyridin-3-yl)ethyl]acetamide]	104%
